Measurements taken from ChEMBL document CHEMBL4483862, “Open-source discovery of chemical leads for next-generation chemoprotective antimalarials” (2018).

Test system: Plasmodium berghei
Experiment: Luciferase/luciferin-expressing antifolate-resistant parasites were used to infect a culture of HepG2 cells that were pre-incubated with compounds. Infected hepatocytes emit light due to the luciferase reaction. Assay results are presented as the percent inhibition of light emission compared to control. […]
Format: functional
Details: sporozoite; for IC90: read-out: LUCIFERASE INFECTION ASSAY - IC90
[1] = read-out: LUCIFERASE INFECTION ASSAY - IC50

SMILES	IC90 [µM]	IC50 [1] [µM]	other results
Cc1nc2ccccc2n1CCC(=O)Nc1cccc(C(F)(F)F)c1	8.78	–	IC50 (PBLUC_HILL_SLOPE 3.83, PBLUC_R_SQUARED 0.29, read-out: LUCIFERASE INFECTION ASSAY - IC50): 4.95 µM
Cc1ccc(NC(=O)c2[nH]nc3c2CCCC3)cc1Cl	> 2	–	IC50 (PBLUC_HILL_SLOPE 0.552, PBLUC_R_SQUARED 0.432, read-out: LUCIFERASE INFECTION ASSAY - IC50): 0.0735 µM
c1ccc(-c2cc3c(Nc4ccccn4)nccc3[nH]2)cc1	> 10	> 10	–
O=C1Nc2ccc([N+](=O)[O-])cc2/C1=N\NC(=O)c1cc2ccccc2cc1O	> 10	–	IC50 (PBLUC_HILL_SLOPE 1.88, PBLUC_R_SQUARED 0.548, read-out: LUCIFERASE INFECTION ASSAY - IC50): 4.86 µM
C/C(=C\c1ccco1)CN1CCc2c(c(C(=O)NCc3ccccn3)nn2CCc2ccccc2)C1	> 6.85	> 6.85	–
CC1(C)CN=C(N(C(=O)Nc2ccc(Cl)c(Cl)c2)c2ccccc2)S1	> 8.37	> 8.37	–
CC(Nc1ncnc2sccc12)c1ccc(F)cc1 (centres undefined)	8.6	–	IC50 (HEPG2TOX_HILL_SLOPE 0.743, HEPG2TOX_R_SQUARED 0.939, PBLUC_HILL_SLOPE 0.968, PBLUC_R_SQUARED 0.762, read-out: LUCIFERASE INFECTION ASSAY - IC50): 0.889 µM
CCc1cccc(NS(=O)(=O)c2ccc(-n3ncc(Cl)c(Cl)c3=O)cc2)c1	9.42	–	IC50 (HEPG2TOX_HILL_SLOPE 22.4, HEPG2TOX_R_SQUARED 0.361, PBLUC_HILL_SLOPE 19.8, PBLUC_R_SQUARED 0.355, read-out: LUCIFERASE INFECTION ASSAY - IC50): 8.43 µM
Cc1cc(/C=N/Nc2ccccc2[N+](=O)[O-])c(C)n1CC(C)C	8.36	–	IC50 (PBLUC_HILL_SLOPE 1.12, PBLUC_R_SQUARED 0.805, read-out: LUCIFERASE INFECTION ASSAY - IC50): 1.17 µM
Cc1[nH]c2c(-c3ccccc3)c(C(F)(F)F)nn2c(=O)c1Cc1ccccc1	> 8.61	7.44	–
O=C(Nc1nc(-c2ccccn2)cs1)C1CCCN(C(=O)c2ccc(Cl)cc2)C1 (centres undefined)	> 10	–	IC50 (FFLUC_HILL_SLOPE 0.539, FFLUC_R_SQUARED 0.289, HEPG2TOX_HILL_SLOPE 0.153, HEPG2TOX_R_SQUARED 0.318, read-out: LUCIFERASE INFECTION ASSAY - IC50): > 10 µM
CC(C)(C)N1C(=O)CC(=O)CC1c1ccc(Cl)cc1 (centres undefined)	11.1	9.51	–
CC(=O)Nc1ccc(NC(=O)C2=COC3=NC(=O)N(Cc4ccccc4C)CCN23)cc1	> 10	–	IC50 (HEPG2TOX_HILL_SLOPE 0.88, HEPG2TOX_R_SQUARED 0.892, PBLUC_HILL_SLOPE 1, PBLUC_R_SQUARED 0.725, read-out: LUCIFERASE INFECTION ASSAY - IC50): 4.16 µM
Cc1cc(Cl)cc(/C=N/NC(=S)NC(C)(C)C)c1O	3.97	3.66	–
Cn1cnnc1-c1cccc(NC(=O)c2ccc(=O)n(Cc3ccccc3)n2)c1	> 10	> 10	–
CC(C)(C)c1ccc(-c2cnc3cnc(-c4ccc(C(=O)N5CCOCC5)cc4)cn23)cc1	> 7.49	–	IC50 (PBLUC_HILL_SLOPE 4.5, PBLUC_R_SQUARED 0.623, read-out: LUCIFERASE INFECTION ASSAY - IC50): 4.7 µM
Cc1ccsc1C(=O)Nc1ccc(N2CCN(C)CC2)cn1	0.343	0.0143	–
COc1ccc(Cc2n[nH]c(Nc3cccc(Cl)c3)nc2=O)cc1	1.36	1.11	–
OCc1ccccc1-c1cn2c(-c3ccc4ncccc4c3)cnc2cn1	0.468	–	IC50 (HEPG2TOX_HILL_SLOPE 0.72, HEPG2TOX_R_SQUARED 0.902, PBLUC_HILL_SLOPE 1.49, PBLUC_R_SQUARED 0.863, read-out: LUCIFERASE INFECTION ASSAY - IC50): 0.107 µM
Cc1ccc(-c2csc(NCSc3cccc4cccnc34)n2)cc1	> 10	> 10	–
O=C(CC12CC3CC(CC(C3)C1)C2)NCC(=O)Nc1ccc2[nH]c(=O)[nH]c2c1	> 10	> 10	–
O=[N+]([O-])c1ccc(Oc2c(Cl)cc(Cl)cc2Cl)cc1	> 10.4	–	IC50 (PBLUC_HILL_SLOPE 1.34, PBLUC_R_SQUARED 0.555, read-out: LUCIFERASE INFECTION ASSAY - IC50): 3.75 µM
COc1ccc(-n2nc(C)c3c(=O)c(Cl)c(C)[nH]c32)cc1	> 10.9	–	IC50 (PBLUC_HILL_SLOPE 4.15, PBLUC_R_SQUARED 0.0529, read-out: LUCIFERASE INFECTION ASSAY - IC50): 10.4 µM
c1csc(-c2cnc3sc(NCCc4ccncc4)nn23)c1	> 10.1	–	IC50 (FFLUC_HILL_SLOPE 0.665, FFLUC_R_SQUARED 0.0104, HEPG2TOX_HILL_SLOPE 4.1, HEPG2TOX_R_SQUARED 0.712, read-out: LUCIFERASE INFECTION ASSAY - IC50): > 10.1 µM

SMILES	IC90 [µM]	IC50 [1] [µM]	other results
Cc1cc(C(=O)Cn2cnc3ccccc3c2=O)c(C)n1-c1ccccc1	> 10	–	IC50 (HEPG2TOX_HILL_SLOPE 1.21, HEPG2TOX_R_SQUARED 0.806, PBLUC_HILL_SLOPE 1.3, PBLUC_R_SQUARED 0.604, read-out: LUCIFERASE INFECTION ASSAY - IC50): 2.96 µM
CCOc1ccc(NC(=O)CCOc2cccc(C)c2)cc1	> 11	> 11	–
Cc1ccc(N2C(=O)N(CC(=O)N3CCc4ccccc43)C(=O)C2C)cc1 (centres undefined)	> 2	> 2	–
COc1ccc(N(Cc2nc(-c3cccs3)oc2C)S(=O)(=O)c2cccs2)cc1	0.446	–	IC50 (HEPG2TOX_HILL_SLOPE 2.9, HEPG2TOX_R_SQUARED 0.761, PBLUC_HILL_SLOPE 1.87, PBLUC_R_SQUARED 0.806, read-out: LUCIFERASE INFECTION ASSAY - IC50): 0.137 µM
CC(C)c1ccc(NC(=O)Nc2nc(C(N)C3CCCCC3)cs2)cc1 (centres undefined)	> 8.86	–	IC50 (PBLUC_HILL_SLOPE 7.05, PBLUC_R_SQUARED 0.602, read-out: LUCIFERASE INFECTION ASSAY - IC50): 7.75 µM
CC(C)(C)C(=O)CSc1nnc(Nc2ccc(Oc3ccccc3)cc2)s1	> 10	–	IC50 (PBLUC_HILL_SLOPE 14.1, PBLUC_R_SQUARED 0.105, read-out: LUCIFERASE INFECTION ASSAY - IC50): 9.89 µM
CC(C)(c1ccc(O)cc1)c1ccc(Cl)cc1	> 10	> 10	–
NS(=O)(=O)c1ccc(CNc2ccc3ncc(-c4ccc(Cl)cc4)n3n2)cc1	1.19	–	IC50 (HEPG2TOX_HILL_SLOPE 1.64, HEPG2TOX_R_SQUARED 0.894, PBLUC_HILL_SLOPE 9.33, PBLUC_R_SQUARED 0.776, read-out: LUCIFERASE INFECTION ASSAY - IC50): 0.942 µM
CCOC(=O)c1cc(C#N)c(SCC(=O)Nc2ccccc2CC)nc1C	> 10	> 10	–
c1ccc2c(Nc3nc(C4CC4)cs3)ncnc2c1	> 10	> 10	–
Cc1cc(Cl)c(C)c(S(=O)(=O)N(C)C(C)c2ccc(S(N)(=O)=O)cc2)c1Cl (centres undefined)	> 10	–	IC50 (HEPG2TOX_HILL_SLOPE 3.91, HEPG2TOX_R_SQUARED 0.817, PBLUC_HILL_SLOPE 1.91, PBLUC_R_SQUARED 0.506, read-out: LUCIFERASE INFECTION ASSAY - IC50): 6.84 µM
CC(=O)N1CCCC(c2cc(C(=O)Nc3ccccc3)no2)C1 (centres undefined)	1.44	–	IC50 (FFLUC_HILL_SLOPE 1.94, FFLUC_R_SQUARED 0.745, PBLUC_HILL_SLOPE 0.811, PBLUC_R_SQUARED 0.626, read-out: LUCIFERASE INFECTION ASSAY - IC50): 0.0959 µM
COc1ccc2cc(CNc3ncnc4n[nH]cc34)ccc2c1	4.29	–	IC50 (HEPG2TOX_HILL_SLOPE 1.04, HEPG2TOX_R_SQUARED 0.97, PBLUC_HILL_SLOPE 1.64, PBLUC_R_SQUARED 0.72, read-out: LUCIFERASE INFECTION ASSAY - IC50): 1.13 µM
Cc1ccc(NN2C(=O)C=C(c3ccccc3)C2=O)cc1	> 11.9	–	IC50 (HEPG2TOX_HILL_SLOPE 1.4, HEPG2TOX_R_SQUARED 0.882, PBLUC_HILL_SLOPE 17, PBLUC_R_SQUARED 0.623, read-out: LUCIFERASE INFECTION ASSAY - IC50): 11.2 µM
OCCNCCNCc1c(OCc2ccc(F)cc2)ccc2ccccc12	> 8.96	> 8.96	–
COc1ccc(-n2nc(C)c3c(=O)cc(C(C)(C)C)[nH]c32)cc1	5.81	–	IC50 (HEPG2TOX_HILL_SLOPE 1.9, HEPG2TOX_R_SQUARED 0.976, PBLUC_HILL_SLOPE 7.24, PBLUC_R_SQUARED 0.294, read-out: LUCIFERASE INFECTION ASSAY - IC50): 4.29 µM
CC(C)(C)NC(=O)NC(=O)COC(=O)CNS(=O)(=O)c1ccc(Br)cc1Cl	> 10	> 10	–
CN(CCO)C(=O)NCCC(c1ccccc1)c1ccccc1	> 10	> 10	–
CC(C)N(CC(=O)Nc1ccc(Cl)cc1C(F)(F)F)C(=O)CNC(c1ccccc1)c1ccccc1	> 10	> 10	–
Cc1onc(-c2c(Cl)cccc2Cl)c1NC(=O)Nc1cscc1S(=O)(=O)C(C)C	> 6.96	–	IC50 (FFLUC_HILL_SLOPE 2.28, FFLUC_R_SQUARED 0.234, read-out: LUCIFERASE INFECTION ASSAY - IC50): > 6.96 µM
O=C(Nc1ncccc1O)c1ccc(Cn2cccn2)cc1	3.1	–	IC50 (PBLUC_HILL_SLOPE 2.35, PBLUC_R_SQUARED 0.554, read-out: LUCIFERASE INFECTION ASSAY - IC50): 1.22 µM
COc1ccc(OC)c(-c2cs/c(=N\c3cccc(C)c3C)n2/N=C/c2ccc(C#N)cc2)c1	> 10	–	IC50 (HEPG2TOX_HILL_SLOPE 2.44, HEPG2TOX_R_SQUARED 0.954, PBLUC_HILL_SLOPE 4.56, PBLUC_R_SQUARED 0.492, read-out: LUCIFERASE INFECTION ASSAY - IC50): 6.34 µM
O=C(Nc1nc2cc(C(F)(F)F)ccc2n1Cc1ccco1)C1CCC1	4.08	–	IC50 (PBLUC_HILL_SLOPE 12.7, PBLUC_R_SQUARED 0.404, read-out: LUCIFERASE INFECTION ASSAY - IC50): 3.43 µM
